Measured values taken from US20260226054A1, “CRYSTAL FORM AND AMORPHOUS SUBSTANCE OF INDOLINE SPIRO COMPOUND, AND PREPARATION METHOD THEREFOR AND USE THEREOF” (CHANGCHUN GENESCIENCE PHARMACEUTICAL CO., LTD., priority 2022, published 2026).

Tests used:
[1] = biological target: T1, human GHSR (Homo sapiens, UniProt Q92847); test: Agonistic activity on human GHSR in human GHSR/CHO cells (FLIPR calcium); assay type: cell-based; conditions: human GHSR/CHO stable transformant cells, Fluo-4 FLIPR
T1 construct: expressed in transfected cells
T1 sequence (Q92847 whole entry): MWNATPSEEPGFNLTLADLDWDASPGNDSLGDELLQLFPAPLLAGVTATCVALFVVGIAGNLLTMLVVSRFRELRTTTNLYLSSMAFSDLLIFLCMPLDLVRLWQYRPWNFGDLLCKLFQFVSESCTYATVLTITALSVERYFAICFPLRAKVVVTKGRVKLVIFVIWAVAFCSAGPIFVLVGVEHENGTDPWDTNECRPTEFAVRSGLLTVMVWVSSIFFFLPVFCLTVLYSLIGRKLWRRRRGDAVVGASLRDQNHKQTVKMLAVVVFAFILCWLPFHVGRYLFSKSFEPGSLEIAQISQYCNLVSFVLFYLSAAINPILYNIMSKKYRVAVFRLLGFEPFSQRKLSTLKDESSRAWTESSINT
Experimental: This method is used for determining the agonistic activity effect of the compound in the present invention on human GHSR protein expressed in human GHSR/CHO stable transformant cells.
Preparation of buffer solution: HBSS (1X): HEPES (1M)=49:1, 0.5% BSA added.
Human GHSR/CHO containing stable transformant cells were inoculated in a 384-well plate, a cell plate was taken out after overnight, the culture medium was removed, and 20 μL of buffer solution was slowly added in each well, then 20 μL of 2X Fluo-4 Direct™ No-wash Loading Buffer was added in each well. The cell plate was incubated in an incubator containing 5% of CO2 at 37° C. for 50 min, and the cell plate was taken out and placed at room temperature for 10 min. 30 μL of buffer solution was added to each well in the compound plate; an additional buffer solution plate was prepared, and 30 μL of buffer solution was added to each well. […] 10 μL of buffer solution was transferred to the cell plate, the fluorescence signal values were read. 10 μL of compound was transferred to the cell plate, the fluorescence signal values were read. The maximum-minimum values from the 91st signal point to the 230th signal point were calculated through the FLIPR program. The EC50 value of the compound could be calculated by the software using the fluorescence value corresponding to the different concentrations.

[2] = in vitro; conditions: human, Caco-2, pH 7.4
Experimental: A transport buffer solution in the study was HBSS containing 10.0 mM of HEPSS, and had pH of 7.40±0.05. The compound to be tested was subjected to bidirectional test at 2.00 μM, and the final concentration of DMSO was required to be less than 1%. In a CO2 incubator at 37±1° C., the cell plate was stood and incubated for 2 h under CO2 at 5% […] and saturated humidity. After mixing all samples with acetonitrile containing internal standard, the mixture was centrifuged at 3200×g for 10 min. The compound was tested, 100 μL of supernatant was diluted with 100 μL of ultrapure water for LC-MS/MS analysis. The concentration of the test compound and a control compound (Digoxin as a model verification compound and ibutamoren as a positive control) in a donor solution and a receiver solution was quantified by an LC-MS/MS method using the peak area ratio of the analyte/internal standard. After transport determination, a lucifer yellow exclusion determination was carried out to determine the integrity of the Caco-2 cell monolayer.

EC50 [1]: 14.6 nM
Papp A→B at 2 h, 2 μM [2]: 0.0518 ×10⁻⁶ cm/s
Papp B→A at 2 h, 2 μM [2]: 8.8 ×10⁻⁶ cm/s
efflux ratio at 2 h, 2 μM [2]: 170
Structure (SMILES): CC(OC(=O)NC(C)(C)C(=O)N[C@H](COCc1ccccc1)C(=O)N1CCC2(CC1)CN(S(C)(=O)=O)c1ccccc12)OC(=O)C(C)C (stereo partly drawn) [Compound 1e, (4R)-7,7-dimethyl-4-(1-(methylsulfonyl)spiro[indoline-3,4′-piperidine]-1′-carbonyl)-6,9-dioxo-1-phenyl-2,10-dioxa-5,8-diazadodecane-11-ylisobutyrate]
